Data taken from patent US7446199B2, “Compositions useful as inhibitors of protein kinases” (Vertex Pharmaceuticals Incorporated, priority 2003, dated 2008).

Assays:
Format in all cases: biochemical
c-Met = c-Met (Homo sapiens, UniProt P08581); experiment: Ki determination for the inhibition of c-Met, coupled enzyme system; conditions: 200 μM ATP, 10 μM polyGluTyr, 80 nM c-Met, 30° C.
Protocol: Compounds were screened for their ability to inhibit c-Met kinase activity using a standard coupled enzyme system (Fox et al., Protein Sci. 1998, 7, 2249). Reactions were carried out in a solution containing 100 mM HEPES (pH 7.5), 10 mM MgCl2, 25 mM NaCl, 300 μM NADH, 1 mM DTT, and 1.5% DMSO. Final substrate concentrations in the assay were 200 μM ATP (Sigma Chemicals, St Louis, Mo.) and 10 μM polyGluTyr (Sigma Chemical Company, St. Louis). Reactions were carried out at 30° C. and 80 nM c-Met. Final concentrations of the components of the coupled enzyme system were 2.5 mM phosphoenolpyruvate, 300 μM NADH, 30 μg/ml pyruvate kinase and 10 μg/ml lactate dehydrogenase.
An assay stock buffer solution was prepared containing all of the reagents listed above with the exception of ATP and a test compound of the present invention. The assay stock buffer solution (175 μl) was incubated in a 96 well plate with 5 μl of the test compound of the present invention at final concentrations spanning 0.006 μM to 12.5 μM at 30° C. for 10 minutes. Typically, a 12-point titration was conducted by preparing serial dilutions (from 10 mM compound stocks) with DMSO of the test compounds of the present invention in daughter plates. The reaction was initiated by the addition of 20 μl of ATP (final concentration 200 μM). Rates of reaction were obtained using a Molecular Devices Spectramax plate reader (Sunnyvale, Calif.) over 10 minutes at 30° C. The Ki values were determined from the rate data as a function of inhibitor concentration.

SYK = SYK (Homo sapiens, UniProt P43405); experiment: SYK enzyme assay, coupled enzyme assay; conditions: 200 μM ATP, 4 μM poly Gly-Tyr peptide, 30° C.
Protocol: Compounds were screened for their ability to inhibit SYK using a standard coupled enzyme assay (Fox et al., Protein Sci. 1998, 7, 2249). Reactions were carried out in 100 mM HEPES (pH 7.5), 10 mM MgCl2, 25 mM NaCl, 1 mM DTT and 1.5% DMSO. Final substrate concentrations in the assay were 200 μM ATP (Sigma chemical Co.) and 4 μM poly Gly-Tyr peptide (Sigma Chemical Co.). Assays were carried out at 30° C. and 200 nM SYK. Final concentrations of the components of the coupled enzyme system were 2.5 mM phosphoenolpyruvate, 300 μM NADH, 30 μg/ml pyruvate kinase and 10 μg/ml lactate dehydrogenase.
An assay stock buffer solution was prepared containing all of the reagents listed above, with the exception of SYK, DTT, and the test compound of interest of the present invention. 56 μl of the test reaction was placed in a 96 well plate followed by the addition of 1 μl of 2 mM DMSO stock containing the test compound of the present invnetion (final compound concentration 30 μM). The plate was pre-incubated for ˜10 minutes at 30° C. and the reaction initiated by the addition of 10 μl of enzyme (final concentration 25 nM). Rates of reaction were obtained using a BioRad Ultramark plate reader (Hercules, Calif.) over a 5 minute read time at 30° C., and Ki values for the compounds of the present invention were determined according to standard methods.

GSK-3β, (AA 1-420) = GSK-3β, (AA 1-420) (Homo sapiens, UniProt P49841); experiment: GSK-3 inhibition assay, coupled enzyme system; conditions: 20 μM ATP, 300 μM peptide, 20 nM GSK-3b, 30° C.; read-out: Ki values (GSK3)
GSK-3β, (AA 1-420), sequence (P49841 whole entry, the tested form may be a part): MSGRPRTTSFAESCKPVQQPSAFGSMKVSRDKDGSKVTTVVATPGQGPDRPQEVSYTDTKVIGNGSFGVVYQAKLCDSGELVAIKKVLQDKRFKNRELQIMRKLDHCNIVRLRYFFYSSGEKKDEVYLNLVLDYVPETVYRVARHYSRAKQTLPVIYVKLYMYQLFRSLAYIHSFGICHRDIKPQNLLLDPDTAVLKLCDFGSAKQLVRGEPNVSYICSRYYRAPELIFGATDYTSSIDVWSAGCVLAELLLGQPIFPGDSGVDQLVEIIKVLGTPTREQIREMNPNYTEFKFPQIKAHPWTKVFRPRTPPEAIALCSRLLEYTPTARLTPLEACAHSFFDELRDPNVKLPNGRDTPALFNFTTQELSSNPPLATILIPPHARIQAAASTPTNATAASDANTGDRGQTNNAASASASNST
Protocol: Compounds of the present invention were screened for their ability to inhibit GSK-3β, (AA 1-420) activity using a standard coupled enzyme system (Fox et al., Protein Sci. 1998, 7, 2249). Reactions were carried out in a solution containing 100 mM HEPES (pH 7.5), 10 mM MgCl2, 25 mM NaCl, 300 μM NADH, 1 mM DTT and 1.5% DMSO. Final substrate concentrations in the assay were 20 μM ATP (Sigma Chemicals, St Louis, Mo.) and 300 μM peptide (American Peptide, Sunnyvale, Calif.). Reactions were carried out at 30° C. and 20 nM GSK-3b. Final concentrations of the components of the coupled enzyme system were 2.5 mM phosphoenolpyruvate, 300 μM NADH, 30 μg/ml pyruvate kinase and 10 μg/ml lactate dehydrogenase.
An assay stock buffer solution was prepared containing all of the reagents listed above with the exception of ATP and the test compound of the present invention. The assay stock buffer solution (175 μl) was incubated in a 96 well plate with 5 μl of the test compound of the present invention at final concentrations spanning 0.002 μM to 30 μM at 30° C. for 10 min. Typically, a 12 point titration was conducted by preparing serial dilutions (from 10 mM compound stocks) with DMSO of the test compounds of the present invention in daughter plates. The reaction was initiated by the addition of 20 μl of ATP (final concentration 20 μM). Rates of reaction were obtained using a Molecular Devices Spectramax plate reader (Sunnyvale, Calif.) over 10 min at 30° C. The Ki values were determined from the rate data as a function of inhibitor concentration.

c-KIT = target: T1, c-KIT (Homo sapiens, UniProt P10721); experiment: Inhibition of c-KIT, radiometric filter-binding assay; conditions: 700 μM ATP, 0.5 mg/mL pE4Y, room temperature
T1 construct: 0.02% BSA and 25 nM c-KIT
T1 sequence (P10721 26-976): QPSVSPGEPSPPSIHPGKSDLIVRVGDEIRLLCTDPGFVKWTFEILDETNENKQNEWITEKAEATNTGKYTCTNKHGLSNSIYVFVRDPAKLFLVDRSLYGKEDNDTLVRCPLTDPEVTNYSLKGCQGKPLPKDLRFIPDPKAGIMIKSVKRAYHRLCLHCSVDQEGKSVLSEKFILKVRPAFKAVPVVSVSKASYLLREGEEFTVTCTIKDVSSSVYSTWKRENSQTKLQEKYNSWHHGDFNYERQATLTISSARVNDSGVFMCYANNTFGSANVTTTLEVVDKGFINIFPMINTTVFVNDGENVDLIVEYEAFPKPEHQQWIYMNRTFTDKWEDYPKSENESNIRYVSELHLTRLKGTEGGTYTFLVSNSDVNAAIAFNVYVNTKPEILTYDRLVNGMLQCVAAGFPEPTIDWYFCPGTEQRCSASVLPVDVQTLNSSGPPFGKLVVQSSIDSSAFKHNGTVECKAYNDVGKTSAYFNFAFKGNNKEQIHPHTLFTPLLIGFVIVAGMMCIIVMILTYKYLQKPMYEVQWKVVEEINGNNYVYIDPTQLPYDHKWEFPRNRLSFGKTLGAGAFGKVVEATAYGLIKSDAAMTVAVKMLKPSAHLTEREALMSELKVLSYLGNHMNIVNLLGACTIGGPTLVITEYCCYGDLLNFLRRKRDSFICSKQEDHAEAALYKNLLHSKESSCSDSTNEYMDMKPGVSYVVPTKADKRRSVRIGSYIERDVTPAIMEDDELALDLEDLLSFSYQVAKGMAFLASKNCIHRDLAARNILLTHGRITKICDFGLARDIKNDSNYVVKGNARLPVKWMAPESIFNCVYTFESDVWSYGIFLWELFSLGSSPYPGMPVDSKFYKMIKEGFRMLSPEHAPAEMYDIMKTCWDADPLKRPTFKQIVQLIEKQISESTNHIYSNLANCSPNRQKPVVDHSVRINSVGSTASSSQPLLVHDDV
Protocol: Compounds are screened for their ability to inhibit c-KIT activity using a radiometric filter-binding assay. This assay monitors the ^33P incorporation into a substrate poly(Glu, Tyr) 4:1 (pE4Y). Reactions are carried out in a solution containing 100 mM HEPES (pH 7.5), 10 mM MgCl2, 25 mM NaCl, 1 mM DTT, 0.01% BSA and 2.5% DMSO. Final substrate concentrations in the assay were 700 μM ATP and 0.5 mg/mL pE4Y (both from Sigma Chemicals, St Louis, Mo.). The final concentration of compounds is generally between 0.01 and 5 μM. Typically, a 12-point titration is conducted by preparing serial dilutions from 10 mM DMSO stock of test compound. Reactions were carried out at room temperature.
Two assay solutions are prepared. Solution 1 contains 100 mM HEPES (pH 7.5), 10 mM MgCl2, 25 mM NaCl, 1 mg/ml pE4Y and 1.4 mM ATP(containing 0.5 μCi of [γ-^33P]ATP for each reaction). Solution 2 contains 100 mM HEPES (pH 7.5), 10 mM MgCl2, 25 mM NaCl, 2 mM DTT, 0.02% BSA and 25 nM c-KIT. The assay is run on a 96 well plate by mixing 33 μL of Solution1 and 1.65 μL of the test compounds. The reaction is initiated with 33 μL of Solution2. After incubation for 20 minutes at room temperature, the reaction was stopped with 50 μL of 10% TCA containing 0.2 mM of ATP. All of the reaction volume is then transferred to a filter plate and washed with 5% TCA by a Harvester9600 from TOMTEC (Hamden, Conn.). The amount of ^33P incorporation into pE4y is analyzed by a Packard TopCount Microplate Scintillation Counter (Meriden, Conn.). The data is fitted using Prism software to get an IC50 or Ki.

JAK3 = target: T2, JAK3 (Homo sapiens, UniProt P52333); experiment: JAK3 inhibition assay (ELISA, Poly (Glu, Ala, Tyr) coated plates); conditions: 2 mM ATP, 60 minutes at 30° C.
T2 sequence (P52333 1-1124): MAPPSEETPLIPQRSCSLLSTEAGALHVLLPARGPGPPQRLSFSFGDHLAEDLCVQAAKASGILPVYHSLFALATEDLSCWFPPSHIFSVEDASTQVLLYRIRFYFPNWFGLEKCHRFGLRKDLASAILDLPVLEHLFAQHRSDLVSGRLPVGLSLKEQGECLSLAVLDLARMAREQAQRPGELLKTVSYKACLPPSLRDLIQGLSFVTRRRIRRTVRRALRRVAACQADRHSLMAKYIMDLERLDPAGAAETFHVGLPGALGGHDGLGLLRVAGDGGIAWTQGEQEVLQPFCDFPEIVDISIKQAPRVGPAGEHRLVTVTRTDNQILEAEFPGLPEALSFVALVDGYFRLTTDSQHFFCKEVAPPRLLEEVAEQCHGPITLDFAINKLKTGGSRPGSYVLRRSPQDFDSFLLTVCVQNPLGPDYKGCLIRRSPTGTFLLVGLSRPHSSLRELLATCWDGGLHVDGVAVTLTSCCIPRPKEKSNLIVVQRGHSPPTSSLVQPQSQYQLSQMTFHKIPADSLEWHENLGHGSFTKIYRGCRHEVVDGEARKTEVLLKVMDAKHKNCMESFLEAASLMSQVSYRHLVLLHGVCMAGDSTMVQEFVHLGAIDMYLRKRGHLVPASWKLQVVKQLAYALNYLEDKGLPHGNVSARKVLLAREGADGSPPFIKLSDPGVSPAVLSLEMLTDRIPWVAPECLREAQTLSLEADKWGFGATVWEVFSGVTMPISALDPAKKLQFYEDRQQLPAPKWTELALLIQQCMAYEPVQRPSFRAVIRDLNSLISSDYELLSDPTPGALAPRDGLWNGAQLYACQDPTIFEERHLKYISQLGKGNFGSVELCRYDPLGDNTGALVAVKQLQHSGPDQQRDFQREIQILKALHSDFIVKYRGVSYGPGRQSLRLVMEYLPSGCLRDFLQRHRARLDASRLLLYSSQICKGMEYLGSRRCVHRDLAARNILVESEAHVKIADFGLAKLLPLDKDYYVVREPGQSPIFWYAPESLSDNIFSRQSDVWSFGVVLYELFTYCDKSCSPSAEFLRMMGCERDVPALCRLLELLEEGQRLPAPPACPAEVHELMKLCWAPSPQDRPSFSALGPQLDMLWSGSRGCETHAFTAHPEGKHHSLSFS
Protocol: Compound inhibition of JAK3 was assayed by the method described by G. R. Brown, et al., Bioorg. Med. Chem. Lett. 2000, vol. 10, pp 575-579 in the following manner. Into Maxisorb plates, previously coated at 4° C. with Poly (Glu, Ala, Tyr) 6:3:1 then washed with phosphate buffered saline 0.05% and Tween (PBST), was added 2 mM ATP, 5 mM MgCl2, and a solution of compound in DMSO. The reaction was started with JAK enzyme and the plates incubated for 60 minutes at 30° C. The plates were then washed with PBST, […] HRP-Conjugated 4G10 antibody was added, and the plate incubated for 90 minutes at 30° C. The plate was again washed with PBST, […] TMB solution is added, and the plates were incubated for another 30 minutes at 30° C. Sulfuric acid ([…] of 1M) was added to stop the reaction and the plate is read at 450 nm to obtain the optical densities for analysis to determine IC50 values.

c-Met, sequence (P08581 25-1390): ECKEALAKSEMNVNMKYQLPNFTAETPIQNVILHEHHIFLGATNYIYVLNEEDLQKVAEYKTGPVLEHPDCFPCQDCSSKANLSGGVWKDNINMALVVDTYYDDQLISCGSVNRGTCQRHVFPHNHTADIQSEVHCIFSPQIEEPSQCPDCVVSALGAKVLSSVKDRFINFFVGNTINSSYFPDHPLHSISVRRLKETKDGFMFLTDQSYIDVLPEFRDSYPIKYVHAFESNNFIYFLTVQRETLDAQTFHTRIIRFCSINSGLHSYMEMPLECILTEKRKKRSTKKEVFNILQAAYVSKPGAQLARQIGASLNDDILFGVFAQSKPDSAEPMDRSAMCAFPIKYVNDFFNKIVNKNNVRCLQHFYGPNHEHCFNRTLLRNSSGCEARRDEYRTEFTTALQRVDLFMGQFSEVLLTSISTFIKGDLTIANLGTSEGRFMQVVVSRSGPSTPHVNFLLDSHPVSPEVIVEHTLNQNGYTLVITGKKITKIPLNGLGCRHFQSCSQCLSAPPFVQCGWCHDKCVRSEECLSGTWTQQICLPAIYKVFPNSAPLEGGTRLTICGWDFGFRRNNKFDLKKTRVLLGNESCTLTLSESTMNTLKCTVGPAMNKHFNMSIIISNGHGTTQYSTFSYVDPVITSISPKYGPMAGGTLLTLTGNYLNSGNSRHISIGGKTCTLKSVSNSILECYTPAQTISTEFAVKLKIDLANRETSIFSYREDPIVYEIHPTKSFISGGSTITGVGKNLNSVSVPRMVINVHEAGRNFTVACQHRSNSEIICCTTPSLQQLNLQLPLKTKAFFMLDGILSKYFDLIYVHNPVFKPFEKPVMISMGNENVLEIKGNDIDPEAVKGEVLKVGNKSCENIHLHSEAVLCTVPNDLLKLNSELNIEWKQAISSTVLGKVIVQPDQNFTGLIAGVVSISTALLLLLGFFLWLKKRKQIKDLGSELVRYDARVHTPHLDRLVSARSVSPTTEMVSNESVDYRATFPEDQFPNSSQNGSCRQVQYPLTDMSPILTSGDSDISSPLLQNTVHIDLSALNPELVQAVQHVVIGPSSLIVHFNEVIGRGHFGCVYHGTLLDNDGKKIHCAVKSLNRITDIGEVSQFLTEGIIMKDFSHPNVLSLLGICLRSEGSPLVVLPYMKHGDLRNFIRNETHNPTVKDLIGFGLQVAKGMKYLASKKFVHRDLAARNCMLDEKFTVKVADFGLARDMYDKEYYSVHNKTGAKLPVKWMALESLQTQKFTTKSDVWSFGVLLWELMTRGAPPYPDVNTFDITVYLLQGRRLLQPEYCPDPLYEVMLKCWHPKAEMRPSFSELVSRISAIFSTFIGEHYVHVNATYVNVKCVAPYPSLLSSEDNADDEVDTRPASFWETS

Row | Ki (c-Met) | Ki (SYK) | Ki (GSK-3β, (AA 1-420)) | Ki (c-KIT) | Ki (JAK3) | SMILES
1 | 1000 to 12500 nM | 1000 to 12500 nM | 1000 to 12500 nM |  |  | Fc1cccc(-c2cnoc2-c2c[nH]c3ccccc23)c1F [Compound 29, 3-[4-(2,3-Difluoro-phenyl)-isoxazol-5-yl]-1H-indole]
2 | < 200 nM |  |  | < 200 nM | 1000 to 12500 nM | CN(C)c1ccc(-c2cnc3[nH]cc(-c4nncn4-c4cccc(F)c4F)c3c2)cc1[N+](=O)[O-] [Compound 131, (4-{3-[4-(2,3-Difluoro-phenyl)-4H-[1,2,4]triazol-3-yl]-1H-pyrrolo[2,3-b]pyridin-5-yl}-2-nitro-phenyl)-dimethyl-amine]
3 | < 200 nM |  |  | 200 to 1000 nM | 1000 to 12500 nM | C[C@@H]1CN(c2ccc(-c3cnc4[nH]cc(-c5nncn5-c5cccc(F)c5F)c4c3)cn2)C[C@H](C)N1 [Compound 122, 3-[4-(2,3-Difluoro-phenyl)-4H-[1,2,4]triazol-3-yl]-5-[6-(3,5-dimethyl-piperazin-1-yl)-pyridin-3-yl]-1H-pyrrolo [2,3-b]pyridine]
4 | < 200 nM |  |  | 200 to 1000 nM | 1000 to 12500 nM | Fc1cccc(-n2cnnc2-c2c[nH]c3ncc(-c4ccc(N5CCC(N6CCCC6)CC5)nc4)cc23)c1F [Compound 123, 5′-{3-[4-(2,3-Difluoro-phenyl)-4H-[1,2,4]triazol-3-yl]-1H-pyrrolo[2,3-b]pyridin-5-yl}-4-pyrrolidin-1-yl-3,4,5,6-tetrahydro-2H-[1,2′]bipyridinyl]
